The record followed here is article PMC9814544 (Communications Chemistry, 2020).

The structures appear in SMILES notation. Converted amounts (≈) assume the structure as drawn. “Also recorded” adds a separate entry of the source. Where two headings read alike, the source gives them in different places.

Data set [1] deals with T1, LOX129.
T1 construct: 6His-tag with thrombin cleavage site (N, cleaved yes); made in house; host or cells: E. coli SHuffle cells (New England BioLabs), pET28a
The experiment in a line: STD-NMR binding, LOX129. The arrangement: species or system human. The settings on record: 5 µM LOX129, 250 µM compound; n = 1. As for the experimental part: Selected cluster representatives were analyzed by multiple biophysical methods to further validate and characterize the identified compounds.
STD NMR binding experiments[51] were performed in 2.5 mm NMR tubes on a Bruker AVII+ 600 MHz spectrometer equipped with a 5 mm cryo-TCI probe and z-gradients. 5 μM LOX129 was incubated with 250 μM BI-0115 in 25 mM Na-phosphate, 100 mM NaCl pH 7.5 in D2O at 298 K and a total d6-DMSO concentration of 1%. The on- and off-resonance spectra were recorded in an interleaved fashion with 256 transients, respectively. Saturation was achieved by irradiation with a Gaussian pulse train for 3 s at resonance frequencies of 100 Hz and 20 kHz, respectively. Residual protein signals were suppressed by employing a 30 ms spin lock pulse prior to acquisition. Water suppression was achieved by a WATERGATE sequence employing a double gradient echo[53]. The signal intensity in the saturation transfer difference spectrum was normalized by the following equation to yield the %STD value: %STD = 100 * (((I(0)-I(sat))/I(0))), where I(0) is the intensity of one signal in the off-resonance and I(sat) the intensity of one signal in the on-resonance spectrum, respectively. Topspin 3.0 (Bruker Biospin) was used to process and analyze data.

The nature of data set [2]: High throughput solubility. The class given is physicochemical. The settings on record: for solubility at 24 h: aqueous buffer, kinetic from dmso stock, n = 1. As for the experimental part:
The aqueous solubility of the test compound is determined by comparing the amount dissolved in buffer to the amount in an acetonitrile/water (1/1) solution. Starting from a 10 mM DMSO stock solution aliquots are diluted with acetonitrile/water (1/1) or buffer resp. After 24h of shaking, the solutions are filtrated and analyzed by LC-UV. The amount dissolved in buffer is compared to the amount in the acetonitrile solution. Solubility will usually be measured from 0.001 to 0.125 mg/ml at a DMSO concentration of 2.5%. The solubility at the different pH values for BI-0115 were measured with n = 1.

The nature of data set [3]: PAMPA passive permeability. The class given is in vitro ADME. The source says: The PAMPA assay provides data on the passive permeability of test compounds through immobilized artificial phospholipid membranes. The method used was extensively described previously. The number of experiments for BI-0115 is n = 1.
On the technique in general: PAMPA measures passive passage across an artificial lipid membrane.

Data set [4] is described as follows: Metabolic stability in rat liver microsomes. The class given is in vitro ADME. As to conditions: in vitro clearance as % hepatic blood flow, n = 1. As for the experimental part:
(§1) The metabolic degradation of the test compound is assayed at 37 °C with microsomes. The final incubation volume of 100 µl per time point contains TRIS buffer pH 7.6 at RT (0.1 M), magnesium chloride (5 mM), microsomal protein (1 mg/ml or 0.5 mg/ml depending on species) and the test compound at a final concentration of 1 µM.
(§2) Following a short preincubation period at 37 °C, the reactions were initiated by addition of beta-nicotinamide adenine dinucleotide phosphate, reduced form (NADPH, 1 mM) and terminated by transfering an aliquot into solvent after different time points. The quenched incubations are pelleted by centrifugation (10000 g, 5 min). An aliquot of the supernatant is assayed by LC-MS/MS for the amount of parent compound. The slope of the semi logarithmic plot of the concentration-time profile determines the half-life. The clearance is calculated by upscaling considering the amount of protein in the incubation, microsomal recovery and liver weight and normalized to the hepatic blood flow of the respective species. The number of experiments for BI-0115 is n = 1.

Data set [5] is described as follows: Metabolic stability in mouse liver microsomes. The settings on record: in vitro clearance as % hepatic blood flow, n = 1. The format is in vitro ADME. As for the experimental part: as §1, §2
Data set [6] is described as follows: AF dye fluorescence quenching assay. The settings on record: at 30 µM; n = 1. As for the experimental part:
Employing filter criteria like < 65% control in the primary assay and a minimum difference of 30% to the SR-B1 counter screen, about 3300 compounds remained. These compounds were tested in concentration response using both assay formats (Supplementary Fig. 1). To qualify the identified compounds further we developed additional assays with the goal to identify compounds that merely quenched the AF dye fluorescence. In this assay, the fluorescence signal of human AF647- or AF594-labeled oxLDL was recorded in the presence and absence of compound. Only compounds without relevant quenching were subsequently selected for further analysis.
Furthermore, quenching assays were established to eliminate compounds showing quenching of the AF594 or AF647 dye fluorescence. For this, human oxLDL labeled with either AF594 or AF647 was incubated with compound and the fluorescence signal with and without compound was measured to determine the quenching of the fluorescence. For both compounds quenching of fluorescence has been tested with n = 1.

In data set [7] the test system is panel of GPCRs, drug transporters, ion channels, nuclear receptors, kinases, and other non-kinase enzymes. In words: Eurofins CEREP off-target panel. The settings on record: at 10 µM; measured once. The procedure:
To assess potential off-target liabilities, BI-0115 was tested on a panel of assays across various key pharmacological target classes (GPCRs, drug transporters, ion channels, nuclear receptors, kinases, and other non-kinase enzymes; Eurofins CEREP, France). […] Although the compound solubility is low, it was sufficient to get a saturable dose response in the cellular assay and the various biophysical assays. Permeability, as measured with the PAMPA assay is good.

Data set [8] deals with T2, hERG channel (Homo sapiens, UniProt Q12809).
T2 construct: expressed in transfected cells; host or cells: HEK293
The experiment in a line: hERG patch-clamp in HEK293 cells. The class given is cell-based. The procedure: hERG-mediated membrane currents are recorded in HEK (human embryonic kidney) 293 cells stably transfected with hERG cDNA, using the whole-cell configuration of the patch-clamp technique as previously described. The number of experiments for BI-0115 is n = 1.
(The hERG channel carries a current that helps repolarise heart muscle cells.)

The nature of data set [9]: Metabolic stability in human liver microsomes. The class given is in vitro ADME. As to conditions: in vitro clearance as % hepatic blood flow, n = 1. The procedure:
as §1, §2

The term solubility denotes the dissolved amount per volume that the medium holds. One may read the Papp as a coefficient for how fast a substance crosses the barrier. Read a high Papp as ready permeation. The term IC50 denotes the concentration that inhibits the measured activity by half. Lower therefore signals higher potency.

T2 sequence (Q12809 whole entry): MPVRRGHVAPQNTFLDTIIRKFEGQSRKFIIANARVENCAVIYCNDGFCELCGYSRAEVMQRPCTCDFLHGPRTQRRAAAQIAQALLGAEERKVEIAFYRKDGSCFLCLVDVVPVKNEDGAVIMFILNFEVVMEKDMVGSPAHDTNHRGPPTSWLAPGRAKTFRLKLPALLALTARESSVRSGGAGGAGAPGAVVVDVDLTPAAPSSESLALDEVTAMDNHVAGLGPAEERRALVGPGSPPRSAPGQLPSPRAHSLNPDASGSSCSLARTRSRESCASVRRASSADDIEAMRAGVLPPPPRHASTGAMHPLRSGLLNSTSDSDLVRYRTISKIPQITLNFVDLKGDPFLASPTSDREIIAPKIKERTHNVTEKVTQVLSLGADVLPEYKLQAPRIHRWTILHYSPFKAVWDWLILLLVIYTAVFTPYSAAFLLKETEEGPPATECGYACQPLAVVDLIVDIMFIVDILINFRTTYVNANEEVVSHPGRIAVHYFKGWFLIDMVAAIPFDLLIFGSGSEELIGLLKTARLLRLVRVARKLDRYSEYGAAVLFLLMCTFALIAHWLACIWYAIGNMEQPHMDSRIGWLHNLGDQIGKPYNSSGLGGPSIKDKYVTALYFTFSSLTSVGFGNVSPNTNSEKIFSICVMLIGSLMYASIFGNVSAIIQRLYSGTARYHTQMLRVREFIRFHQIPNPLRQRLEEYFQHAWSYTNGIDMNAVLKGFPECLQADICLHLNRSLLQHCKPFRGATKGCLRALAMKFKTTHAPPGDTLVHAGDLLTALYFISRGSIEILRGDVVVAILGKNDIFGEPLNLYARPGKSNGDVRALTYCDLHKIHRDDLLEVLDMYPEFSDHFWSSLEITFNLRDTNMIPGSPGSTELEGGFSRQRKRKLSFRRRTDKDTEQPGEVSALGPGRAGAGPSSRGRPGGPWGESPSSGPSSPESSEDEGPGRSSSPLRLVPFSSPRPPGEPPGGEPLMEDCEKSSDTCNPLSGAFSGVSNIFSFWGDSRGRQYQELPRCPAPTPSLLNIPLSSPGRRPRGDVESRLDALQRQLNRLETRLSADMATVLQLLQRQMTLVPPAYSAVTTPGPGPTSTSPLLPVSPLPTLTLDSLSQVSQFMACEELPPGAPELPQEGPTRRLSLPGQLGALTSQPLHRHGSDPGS

For `CCCN1C(=O)c2ccc(Cl)cc2Nc2ncccc21` [BI-0115], the STD-NMR entry in data set [1] is “binding”. The solubility at 24 h in data set [2] (pH 4, aqueous buffer, pH4, read-out: Solubility pH4) is 1 µg/mL (≈ 3.48 µM); in data set [2] (pH 7, aqueous buffer, pH7, read-out: Solubility pH7) it was 1 µg/mL (≈ 3.48 µM). Besides, in data set [2] (in words), the compound solubility entry is “low”. Also, the Papp in data set [3] (PAMPA, n = 1) is 1.5 ×10⁻⁶ cm/s. The “Permeability, PAMPA assay” value in [3] (in words) is listed as “good”. Besides, the “micr. Stab rLM” value in data set [4] was 95 %QH. The “micr. Stab mLM” value in [5] turned out to be 95 %QH. Moreover, in data set [6], the “Quench Assay” value is given as −9.1%. Also, the CEREP profile result in data set [7] is reported as “very clean profile; also recorded: clean”. In addition, in data set [8] (in words), the “inhibition of the hERG channel” value is given as “no inhibition”. In addition, the half-maximal inhibitory concentration (IC50) in data set [8] (whole-cell patch-clamp, n = 1) was greater than 10 µM. Moreover, in data set [9], the “micr. Stab hLM” value is reported as 77 %QH.
